Our source for the IC50 values is patent US20240174648A1, “Small Molecule Compound” (Technoderma Medicines Pte Ltd, priority 2019, published 2024).

Assay type in all cases: biochemical
The target in one experiment is Tyk2 (Homo sapiens, UniProt P29597). Nature of the experiment: JAK kinase inhibition assay (EZ Reader, peptide substrate phosphorylation) - Tyk2. Conditions: Tyk2 kinase 1 nM; 8 concentration points, max 10 μM. The method in brief: (§1)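 Microfluidic mobility-shift detection of fluorescent peptide substrate phosphorylation, with JAK1 at 20 nM and JAK2, JAK3 and Tyk2 each at 1 nM final, in 20 mM HEPES pH 7.4, 10 mM MgCl2, 1 mM DTT. Reactions run at room temperature to 20–30% conversion, then EDTA-stopped. Compounds tested at 8 three-fold dilutions from 10 μM top final; IC50 from conversion curves.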

For a further experiment, the target named is JAK1 (Homo sapiens, UniProt P23458). Nature of the experiment: JAK kinase inhibition assay (EZ Reader, peptide substrate phosphorylation) - JAK1. The following applies: JAK1 kinase 20 nM; 8 concentration points, max 10 μM. The method in brief: as §1
The target of the next experiment is JAK2 (Homo sapiens, UniProt O60674). Nature of the experiment: JAK kinase inhibition assay (EZ Reader, peptide substrate phosphorylation) - JAK2. Conditions: JAK2 kinase 1 nM; 8 concentration points, max 10 μM. From the text:
(§2) Assay for Identifying Inhibitory Effects of Compounds on JAK Kinases
(§3) Janus kinases (JAK), including JAK1, JAK2, JAK3 and Tyk2, transduce a cytokine-mediated signal through a JAK-STAT pathway. The kinases are 120-140 kDa in size and have 7 determined homology regions: JH1 to JH7. JH1 is an important region for enzymatic activity and has typical characteristics of tyrosine kinases. Phosphorylation of tyrosine leads to a change in the conformation of JAK protein, thereby promoting binding of substrate. The JAK-STAT system includes three main parts: receptors penetrating a cell membrane, Janus kinases binding to the receptors, and signal transducers and activators of transcription (STAT) for transmitting signals to a nucleus and DNA. When cytokines bind to receptors, JAK phosphorylates the receptors and attracts STAT proteins. The STAT proteins are also phosphorylated and combined with one another to form dimers. The dimers enter the nucleus and bind to DNA, thereby leading to gene transcription.
(§4) EZ Reader from PerkinElmer can be used to detect the phosphorylation of polypeptide substrates catalyzed by kinases. The device is based on microfluidic techniques, and can directly detect fluorescently labeled substrates and products. The separation step is achieved by controlling the pressure and electric field strength in the microfluidic chip. In kinase assays, a product conversion ratio is usually controlled to be 20-30%. A biological test is used to identify inhibitory effects of compounds on JAKs.
(§5) Compound powder was dissolved in DMSO, sealed and stored in a freezer under −20° C. The in-house compound Ref1 was used as a positive control for JAK1, JAK2 and Tyk2 tests, and Ref2 was used as a positive control for JAK3 tests.
(§6) S2.8. Assay buffer: 20 mM HEPES buffer, pH 7.4, 10 mM magnesium chloride, 0.01% bovine serum albumin BSA, 0.0005% Tween-20 and 1 mM dithiothreitol solution.
(§7) S2.9. Stop buffer: 180 mM HEPES buffer, 20 mM ethylenediaminetetraacetic acid and 0.2% coating reagent 3.
(§8) S2.10. Separation buffer: 100 mM HEPES buffer, 10 mM ethylenediaminetetraacetic acid, 0.0005% Tween 20, 0.1% coating reagent 3 and 1% dimethyl sulfoxide.
The compound was dissolved in dimethyl sulfoxide and diluted to 10 mM concentration, a certain volume of solution was taken and diluted to 0.6 mM concentration, 10 μL of the 0.6 mM dilution was added to a 384-well microplate, and then was diluted 3-fold with a total of 8 concentration points.
Positive control (HPE1): Ref1, final concentration: 10 μM […]
(§9) Negative control (ZPE): DMSO, final content: 1.6%
(§10) Compounds: maximum final concentration: 10 μM; 3-fold dilution, 8 concentration points and 2 duplicates.
(§11) S4.1. 250 nL of the compound was added to each well of the assay microplate by using ECHO, and centrifuged at 1000 rpm for 1 minute.
(§12) S4.2. 5 μL of the assay buffer was added and agitated for a few seconds to fully dissolve the compound.
(§13) S4.3. 5 μL of 3× substrate solution and 5 μL of 3× kinase solution were added and centrifuged at 800 rpm for 1 minute.
(§14) S4.4. Final concentrations of JAK1, JAK2, JAK3 and Tyk2 kinases in the reaction system were 20 nM, 1 nM, 1 nM and 1 nM respectively.
(§15) S4.5. Incubation at room temperature, where kinases had time differences, and different batches of kinases had time differences.
(§16) S4.6. When 20%-30% of the reaction completed, 15 μL of stop buffer was added to stop the reaction, and centrifuged at 1000 rpm for 2 minutes.
(§17) S4.7. The microplates were placed on EZ Reader for reading.
(§18) S4.8. Readings on EZ Reader were calculated by using a peak height, where product conversion ratio (%)=product/(product+substrate)*100.
(§19) 5. Data Processing: IC50 calculation
(§20) A graphing software Xlfit was used to form a concentration curve of the test compound, and an IC50 value was calculated.
(§21) “A” means “≥10 μM”; “B” means “≥1 μM and <10 μM”; “C” means “≥0.1 μM and <1 μM”; and “D” means “<0.1 μM”.

In the next experiment the target is T1, JAK3 (Homo sapiens, UniProt P52333).
T1 sequence (P52333 1-1124): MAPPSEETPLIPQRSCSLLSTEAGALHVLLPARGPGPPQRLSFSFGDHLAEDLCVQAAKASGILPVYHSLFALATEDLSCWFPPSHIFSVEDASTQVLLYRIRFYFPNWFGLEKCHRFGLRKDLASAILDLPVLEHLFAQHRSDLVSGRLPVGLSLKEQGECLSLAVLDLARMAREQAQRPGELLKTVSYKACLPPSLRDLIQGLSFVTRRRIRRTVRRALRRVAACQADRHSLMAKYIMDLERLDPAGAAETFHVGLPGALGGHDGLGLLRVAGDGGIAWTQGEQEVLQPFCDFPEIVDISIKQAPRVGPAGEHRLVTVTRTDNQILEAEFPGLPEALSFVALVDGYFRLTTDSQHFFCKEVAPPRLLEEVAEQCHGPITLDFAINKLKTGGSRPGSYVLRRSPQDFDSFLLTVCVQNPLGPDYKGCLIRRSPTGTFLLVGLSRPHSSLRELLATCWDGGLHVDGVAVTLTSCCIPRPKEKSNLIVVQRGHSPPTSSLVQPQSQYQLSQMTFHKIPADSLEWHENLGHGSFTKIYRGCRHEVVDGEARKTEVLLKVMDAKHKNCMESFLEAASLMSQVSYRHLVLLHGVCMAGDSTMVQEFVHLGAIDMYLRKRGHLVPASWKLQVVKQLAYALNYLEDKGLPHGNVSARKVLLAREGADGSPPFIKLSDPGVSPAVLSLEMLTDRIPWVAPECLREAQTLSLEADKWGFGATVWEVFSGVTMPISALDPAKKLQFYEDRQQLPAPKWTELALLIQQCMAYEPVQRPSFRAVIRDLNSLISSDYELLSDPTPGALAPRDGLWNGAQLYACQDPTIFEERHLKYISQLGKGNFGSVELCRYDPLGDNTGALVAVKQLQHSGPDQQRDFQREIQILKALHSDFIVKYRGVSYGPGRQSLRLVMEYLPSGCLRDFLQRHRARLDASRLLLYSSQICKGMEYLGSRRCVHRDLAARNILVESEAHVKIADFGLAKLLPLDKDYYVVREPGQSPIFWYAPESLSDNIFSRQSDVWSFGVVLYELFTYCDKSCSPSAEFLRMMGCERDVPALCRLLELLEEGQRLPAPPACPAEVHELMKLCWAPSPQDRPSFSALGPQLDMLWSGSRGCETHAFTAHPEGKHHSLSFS
Nature of the experiment: JAK kinase inhibition assay (EZ Reader, peptide substrate phosphorylation) - JAK3. Conditions: JAK3 kinase 1 nM; 8 concentration points, max 10 μM.
Text: as §2, §3, §4, §5, §6, §7, §8
The compound was dissolved in dimethyl sulfoxide and diluted to 10 mM concentration, a certain volume of solution was taken and diluted to 0.6 mM concentration, 10 μL of the 0.6 mM dilution was added to a 384-well microplate, and then was diluted 3-fold with a total of 8 concentration points. […]
Positive control (HPE1): Ref2, final concentration: 10 μM
as §9, §10, §11, §12, §13, §14, §15, §16, §17, §18, §19, §20, §21

Usually IC50 stands for the concentration needed to halve the response being measured. A low value points to greater potency.

Sequence of JAK2 (O60674 whole entry): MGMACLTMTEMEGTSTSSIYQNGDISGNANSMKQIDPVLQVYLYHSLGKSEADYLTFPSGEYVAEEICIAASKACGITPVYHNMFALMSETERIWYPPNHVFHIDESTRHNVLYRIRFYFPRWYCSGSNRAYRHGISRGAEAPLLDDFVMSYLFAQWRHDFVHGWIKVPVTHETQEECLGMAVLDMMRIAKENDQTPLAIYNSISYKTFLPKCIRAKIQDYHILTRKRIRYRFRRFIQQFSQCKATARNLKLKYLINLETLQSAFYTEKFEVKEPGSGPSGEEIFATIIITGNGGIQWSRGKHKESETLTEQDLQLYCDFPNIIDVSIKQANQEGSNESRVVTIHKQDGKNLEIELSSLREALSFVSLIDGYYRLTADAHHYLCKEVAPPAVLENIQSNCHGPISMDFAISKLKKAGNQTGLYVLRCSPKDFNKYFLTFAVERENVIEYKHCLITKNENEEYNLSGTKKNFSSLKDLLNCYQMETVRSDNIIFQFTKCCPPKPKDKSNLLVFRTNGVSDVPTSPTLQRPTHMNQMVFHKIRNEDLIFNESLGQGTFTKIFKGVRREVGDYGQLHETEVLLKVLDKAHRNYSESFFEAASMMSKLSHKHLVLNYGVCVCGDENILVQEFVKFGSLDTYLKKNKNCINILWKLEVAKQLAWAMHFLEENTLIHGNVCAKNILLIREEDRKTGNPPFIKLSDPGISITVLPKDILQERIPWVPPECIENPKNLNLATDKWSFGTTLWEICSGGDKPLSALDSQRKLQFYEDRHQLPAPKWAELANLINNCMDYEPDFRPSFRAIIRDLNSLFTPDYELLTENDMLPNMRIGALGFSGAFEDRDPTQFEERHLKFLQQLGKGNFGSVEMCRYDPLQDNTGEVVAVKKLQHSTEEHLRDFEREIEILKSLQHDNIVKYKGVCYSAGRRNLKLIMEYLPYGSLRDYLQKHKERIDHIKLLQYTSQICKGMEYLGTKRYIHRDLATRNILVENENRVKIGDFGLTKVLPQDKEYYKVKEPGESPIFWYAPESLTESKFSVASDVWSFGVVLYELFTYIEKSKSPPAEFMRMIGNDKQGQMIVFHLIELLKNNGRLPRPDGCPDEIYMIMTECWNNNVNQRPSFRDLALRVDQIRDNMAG
Sequence of Tyk2 (P29597 whole entry): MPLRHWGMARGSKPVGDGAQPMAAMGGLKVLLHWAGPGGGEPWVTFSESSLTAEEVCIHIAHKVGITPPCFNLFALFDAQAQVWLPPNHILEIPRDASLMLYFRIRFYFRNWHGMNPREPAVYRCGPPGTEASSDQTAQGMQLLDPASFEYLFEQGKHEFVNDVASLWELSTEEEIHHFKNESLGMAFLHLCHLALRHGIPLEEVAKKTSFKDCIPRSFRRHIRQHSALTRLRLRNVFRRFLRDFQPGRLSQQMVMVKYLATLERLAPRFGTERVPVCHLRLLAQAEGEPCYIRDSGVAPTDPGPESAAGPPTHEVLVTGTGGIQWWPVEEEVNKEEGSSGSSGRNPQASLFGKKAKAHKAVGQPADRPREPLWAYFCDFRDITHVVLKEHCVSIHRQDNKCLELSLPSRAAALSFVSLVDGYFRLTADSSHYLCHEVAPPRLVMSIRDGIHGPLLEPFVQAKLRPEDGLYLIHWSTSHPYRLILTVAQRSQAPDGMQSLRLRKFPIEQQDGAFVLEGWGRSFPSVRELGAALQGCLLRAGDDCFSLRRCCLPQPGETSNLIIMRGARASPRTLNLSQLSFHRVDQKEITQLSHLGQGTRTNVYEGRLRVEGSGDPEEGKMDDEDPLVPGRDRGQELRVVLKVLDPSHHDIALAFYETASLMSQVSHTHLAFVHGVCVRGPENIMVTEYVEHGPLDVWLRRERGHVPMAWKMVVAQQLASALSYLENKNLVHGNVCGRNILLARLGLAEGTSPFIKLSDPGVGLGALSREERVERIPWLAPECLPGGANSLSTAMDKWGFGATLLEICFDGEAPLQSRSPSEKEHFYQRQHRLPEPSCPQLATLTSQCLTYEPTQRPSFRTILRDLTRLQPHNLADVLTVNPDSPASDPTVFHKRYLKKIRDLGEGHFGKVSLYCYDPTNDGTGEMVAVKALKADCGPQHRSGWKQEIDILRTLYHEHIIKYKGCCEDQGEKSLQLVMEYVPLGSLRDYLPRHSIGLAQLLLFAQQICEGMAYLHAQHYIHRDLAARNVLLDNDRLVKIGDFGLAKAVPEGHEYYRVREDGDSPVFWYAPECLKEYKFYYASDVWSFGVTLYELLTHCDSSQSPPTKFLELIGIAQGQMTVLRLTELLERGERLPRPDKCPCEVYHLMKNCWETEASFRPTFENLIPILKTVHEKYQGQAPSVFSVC
Sequence of JAK1 (P23458 whole entry): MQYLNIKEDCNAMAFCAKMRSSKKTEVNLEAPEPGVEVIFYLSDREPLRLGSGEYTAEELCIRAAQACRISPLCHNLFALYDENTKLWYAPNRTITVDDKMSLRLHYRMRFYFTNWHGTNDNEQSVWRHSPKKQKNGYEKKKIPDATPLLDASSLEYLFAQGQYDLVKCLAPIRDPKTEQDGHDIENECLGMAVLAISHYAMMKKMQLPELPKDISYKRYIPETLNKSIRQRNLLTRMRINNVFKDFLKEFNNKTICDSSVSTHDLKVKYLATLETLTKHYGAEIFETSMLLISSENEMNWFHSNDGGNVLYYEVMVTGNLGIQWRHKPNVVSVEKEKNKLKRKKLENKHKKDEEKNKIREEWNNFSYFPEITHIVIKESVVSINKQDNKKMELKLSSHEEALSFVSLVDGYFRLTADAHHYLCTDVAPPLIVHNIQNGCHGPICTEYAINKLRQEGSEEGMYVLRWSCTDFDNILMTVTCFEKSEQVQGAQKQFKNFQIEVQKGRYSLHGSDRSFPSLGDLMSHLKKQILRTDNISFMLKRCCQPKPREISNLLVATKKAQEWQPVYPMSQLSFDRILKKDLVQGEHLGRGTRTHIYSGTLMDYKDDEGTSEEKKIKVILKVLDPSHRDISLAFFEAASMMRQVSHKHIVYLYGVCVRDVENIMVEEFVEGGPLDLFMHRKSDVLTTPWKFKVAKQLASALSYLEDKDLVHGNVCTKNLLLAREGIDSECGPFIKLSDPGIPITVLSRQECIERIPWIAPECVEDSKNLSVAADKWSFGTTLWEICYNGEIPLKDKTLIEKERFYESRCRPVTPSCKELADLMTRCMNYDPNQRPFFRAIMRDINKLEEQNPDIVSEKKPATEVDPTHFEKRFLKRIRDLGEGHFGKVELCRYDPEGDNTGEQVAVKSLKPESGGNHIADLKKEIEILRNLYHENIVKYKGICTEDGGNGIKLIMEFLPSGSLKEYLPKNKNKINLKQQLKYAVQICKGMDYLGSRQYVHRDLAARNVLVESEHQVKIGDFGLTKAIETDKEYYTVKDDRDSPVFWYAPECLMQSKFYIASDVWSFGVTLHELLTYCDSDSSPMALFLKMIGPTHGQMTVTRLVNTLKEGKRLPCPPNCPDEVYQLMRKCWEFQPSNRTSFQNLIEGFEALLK

With `Cn1cc(Nc2nccc(-c3ccc(C(=O)NCC(F)(F)F)cc3)n2)cn1` [TDM-180748, 4-(2-((1-methyl-1H-pyrazol-4-yl)amino)pyrimidin-4-yl)-N-(2,2,2-trifluoroethyl)benzamide], the IC50 is 0.1 to 1 µM at Tyk2, 0.1 to 1 µM against JAK1, 0.1 to 1 µM against JAK2 and 1 to 10 µM against JAK3.
As for `Cn1cc(Nc2nccc(-c3ccc(C(=O)N4CCS(=O)(=O)CC4)cc3)n2)cn1` [TDM-180749], the IC50 is 1 to 10 µM against Tyk2, 1 to 10 µM against JAK1, 1 to 10 µM against JAK2 and not below 10 µM against JAK3.
Take `Cn1cc(Nc2nccc(-c3ccc(NC(=O)CC(F)(F)F)cc3)n2)cn1` [TDM-180754, 3,3,3-trifluoro-N-(4-(2-((1-methyl-1H-pyrazol-4-yl)amino)pyrimidin-4-yl)phenyl)propanamide]: the IC50 against Tyk2 was 0.1 to 1 µM; against JAK1, less than 0.1 µM; on JAK2, less than 0.1 µM; against JAK3, 1 to 10 µM.
For `Cn1cc(Nc2nccc(-c3ccc(NC(=O)C4CC4)cc3)n2)cn1` [TDM-180755, N-(4-(2-((1-methyl-1H-pyrazol-4-yl)amino)pyrimidin-4-yl)phenyl)cyclopropanecarboxamide], the 50% inhibitory concentration (IC50) at Tyk2 was less than 0.1 µM; against JAK1, less than 0.1 µM; at JAK2, less than 0.1 µM; against JAK3 it was 1 to 10 µM.
As to `Cn1cc(Nc2nccc(-c3ccc(C(=O)NCC(F)(F)F)nc3)n2)cn1` [TDM-180756, 5-(2-((1-methyl-1H-pyrazole-4-yl)amino)pyrimidin-4-yl)-N-(2,2,2-trifluoroethyl)pyridinecarboxamide], the IC50 at Tyk2 is 0.1 to 1 µM; against JAK1, 0.1 to 1 µM; against JAK2, 0.1 to 1 µM; against JAK3, 1 to 10 µM.
Consider `Cn1cc(Nc2nccc(-c3ccc(NC(=O)C4CC4(F)F)cc3)n2)cn1` (stereo not shown) [TDM-180757, 2,2-difluoro-N-(4-(2-((1-methyl-1H-pyrazol-4-yl)amino)pyrimidin-4-yl)phenyl)cyclopropane-1-carboxamide], for which the IC50 on Tyk2 was less than 0.1 µM; against JAK1, less than 0.1 µM; at JAK2, less than 0.1 µM; against JAK3 it was 0.1 to 1 µM.
With `Cn1cc(Nc2nccc(-c3ccc(C(=O)NC4CC4(F)F)cc3)n2)cn1` (stereo not shown) [TDM-180758, N-(2,2-difluorocyclopropyl)-4-(2-((1-methyl-1H-pyrazol-4-yl)amino)pyrimidin-4-yl)benzamide], the IC50 on Tyk2 was 1 to 10 µM; at JAK1, 0.1 to 1 µM; against JAK2 it was 1 to 10 µM; against JAK3, 1 to 10 µM.
With `COCC(=O)Nc1ccc(-c2ccnc(Nc3cnn(C)c3)n2)cc1` [TDM-180759, 2-methoxy-N-(4-(2-((1-methyl-1H-pyrazol-4-yl)amino)pyrimidin-4-yl)phenyl)acetamide], the IC50 is 1 to 10 µM against Tyk2, 1 to 10 µM at JAK1, 1 to 10 µM against JAK2 and not below 10 µM on JAK3.
As for `Cn1cc(Nc2nccc(-c3ccc(CNCC(F)(F)F)cc3)n2)cn1` [TDM-180760, N-(1-methyl-1H-pyrazol-4-yl)-4-(4-(((2,2,2-trifluoroethyl)amino)methyl)phenyl)pyrimidin-2-amine], the IC50 against Tyk2 is 0.1 to 1 µM; at JAK1, 0.1 to 1 µM; against JAK2, 1 to 10 µM; against JAK3, not below 10 µM.
`Cn1cc(Nc2nccc(-c3ccc(CNCC#N)cc3)n2)cn1` [TDM-180761, 2-((4-(2-((1-methyl-1H-pyrazol-4-yl)amino)pyrimidin-4-yl)benzyl)amino)acetonitrile]: the IC50 against Tyk2 was 0.1 to 1 µM; against JAK1 it was 0.1 to 1 µM; against JAK2 it was 1 to 10 µM; against JAK3, not below 10 µM.
With `Cn1cc(Nc2nccc(-c3ccc(C(=O)NCC#N)nc3)n2)cn1` [TDM-180762, N-(cyanomethyl)-5-(2-((1-methyl-1H-pyrazol-4-yl)amino)pyrimidin-4-yl)pyridinecarboxamide], the IC50 was in the range of 0.1 to 1 µM against Tyk2, 0.1 to 1 µM on JAK1, 0.1 to 1 µM at JAK2 and 1 to 10 µM against JAK3.
Regarding `Cn1cc(Nc2nccc(-c3ccc(-n4nccc4C4CC4)cc3)n2)cn1` [TDM-180763, 4-(4-(5-cyclopropyl-1H-pyrazol-1-yl)phenyl)-N-(1-methyl-1H-pyrazol-4-yl)pyrimidin-2-amine], the IC50 against Tyk2 is 1 to 10 µM; at JAK1, 10 µM; on JAK2, 1 to 10 µM; on JAK3 it was not below 10 µM.
In the case of `Cn1cc(Nc2nccc(-c3ccc(C(=O)N4CCS(=O)(=O)CC4)nc3)n2)cn1` [TDM-180764, (1,1-sulfur dioxide) (5-(2-((1-methyl-1H-pyrazol-4-yl)amino)pyrimidin-4-yl)pyridin-2-yl)methanone], the IC50 is 1 to 10 µM on Tyk2, 1 to 10 µM on JAK1, 1 to 10 µM at JAK2 and not below 10 µM at JAK3.
